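Cultured in 96-well plates, cells were exposed to test compound for 48 hours across five concentrations. Abbreviation: GI50, concentration required for 50% inhibition of growth.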 Activity calls are given as the source filed them. No stated cut-off is given here; in the data, active = GI50 up to about 1.1 µM and inactive = higher.
Columns and labels:
Assay in all cases: NCI-60 cell line screen, 48 h
786-0 = test system: 786-0
BT-549 = test system: BT-549
COLO 205 = test system: COLO 205
DMS-273 = test system: DMS-273
HOP-92 = test system: HOP-92
HT-29 = test system: HT-29
Hs-578T = test system: Hs-578T
IGROV-1 = test system: IGROV-1
K562 = test system: K562
M19-MEL = test system: M19-MEL
MDA-N = test system: MDA-N
NCI/ADR-RES = test system: NCI/ADR-RES
OVCAR-4 = test system: OVCAR-4
PC-3 = test system: PC-3
SF-268 = test system: SF-268
SF-539 = test system: SF-539
SK-MEL-28 = test system: SK-MEL-28
SK-MEL-2 = test system: SK-MEL-2
SN12C = test system: SN12C
SW-620 = test system: SW-620

With `COc1cc2c(c(OC)c1OC)-c1ccc(SC)c(=O)cc1C(NC=O)CC2` (centres undefined) the GI50 (786-0) was < 0.01 µM (active), the GI50 (BT-549) was 0.239 µM (active) and the GI50 (COLO 205) was < 0.01 µM (active). The GI50 (DMS-273) was < 0.01 µM (active), the GI50 (HOP-92) was < 0.01 µM (active) and the GI50 (HT-29) was < 0.01 µM (active). The GI50 (Hs-578T) was < 0.01 µM (active), the GI50 (IGROV-1) was < 0.01 µM (active) and the GI50 (K562) was < 0.01 µM (active). The GI50 (M19-MEL) was < 0.01 µM (active), the GI50 (MDA-N) was < 0.01 µM (active) and the GI50 (NCI/ADR-RES) was 0.0393 µM (active). For the same compound, the GI50 (OVCAR-4) was 66.4 µM (inactive), the GI50 (PC-3) was < 0.01 µM (active) and the GI50 (SF-268) was < 0.01 µM (active). For the same compound, the GI50 (SF-539) was < 0.01 µM (active), the GI50 (SK-MEL-28) was 0.462 µM (active) and the GI50 (SK-MEL-2) was < 0.01 µM (active). For the same compound, the GI50 (SN12C) was < 0.01 µM (active) and the GI50 (SW-620) was < 0.0275 µM (active).
For `O=[N+]([O-])c1cc([N+](=O)[O-])c(C(Cl)C(Cl)c2ccccc2)cc1C(Cl)C(Cl)c1ccccc1` (centres undefined), the GI50 (786-0) was 1.69 µM (inactive), the GI50 (COLO 205) was 1.73 µM (inactive) and the GI50 (DMS-273) was 2.03 µM (inactive). The GI50 (HOP-92) was 1.6 µM (inactive), the GI50 (HT-29) was 2.17 µM (inactive) and the GI50 (IGROV-1) was 2.46 µM (inactive). For the same compound, the GI50 (K562) was 1.69 µM (inactive), the GI50 (M19-MEL) was 1.83 µM (inactive) and the GI50 (OVCAR-4) was 2.64 µM (inactive). For the same compound, the GI50 (SF-268) was 1.77 µM (inactive), the GI50 (SF-539) was 1.8 µM (inactive) and the GI50 (SK-MEL-28) was 1.9 µM (inactive). The GI50 (SK-MEL-2) was 2 µM (inactive), the GI50 (SN12C) was 1.75 µM (inactive) and the GI50 (SW-620) was 1.61 µM (inactive).
For `CCOC(=O)N1C2C=C(C)C(ON2C(=O)c2ccccc2)C2C(C)C(=O)N21` (centres undefined), the GI50 (786-0) was > 100 µM (inactive), the GI50 (COLO 205) was > 100 µM (inactive) and the GI50 (DMS-273) was > 100 µM (inactive). For the same compound, the GI50 (HOP-92) was > 100 µM (inactive), the GI50 (HT-29) was > 100 µM (inactive) and the GI50 (IGROV-1) was > 100 µM (inactive). For the same compound, the GI50 (K562) was > 100 µM (inactive), the GI50 (M19-MEL) was > 100 µM (inactive) and the GI50 (OVCAR-4) was > 100 µM (inactive). The GI50 (SF-268) was > 100 µM (inactive), the GI50 (SF-539) was > 100 µM (inactive) and the GI50 (SK-MEL-28) was > 100 µM (inactive). The GI50 (SK-MEL-2) was > 100 µM (inactive), the GI50 (SN12C) was > 100 µM (inactive) and the GI50 (SW-620) was > 100 µM (inactive).
With `Cc1csc2c1C(=O)c1ccsc1C2=O` the GI50 (786-0) was 4.63 µM (inactive), the GI50 (COLO 205) was 12.2 µM (inactive) and the GI50 (DMS-273) was 1.94 µM (inactive). For the same compound, the GI50 (HOP-92) was 3.56 µM (inactive), the GI50 (HT-29) was 2.65 µM (inactive) and the GI50 (Hs-578T) was 1.81 µM (inactive). The GI50 (IGROV-1) was 3.24 µM (inactive), the GI50 (K562) was 2.85 µM (inactive) and the GI50 (M19-MEL) was 0.175 µM (active). For the same compound, the GI50 (MDA-N) was 0.293 µM (active), the GI50 (NCI/ADR-RES) was 1.87 µM (inactive) and the GI50 (OVCAR-4) was 1.89 µM (inactive). The GI50 (PC-3) was 2.58 µM (inactive), the GI50 (SF-268) was 2.96 µM (inactive) and the GI50 (SF-539) was 2.01 µM (inactive). The GI50 (SK-MEL-28) was 1.53 µM (inactive), the GI50 (SK-MEL-2) was 2.03 µM (inactive) and the GI50 (SN12C) was 2.2 µM (inactive). The GI50 (SW-620) was 2.47 µM (inactive).
`COC(=O)c1c[nH]cc1CCc1c[nH]cc1C(=O)OC` was tested, and the GI50 (786-0) was > 100 µM (inactive), the GI50 (COLO 205) was > 100 µM (inactive) and the GI50 (DMS-273) was > 100 µM (inactive). The GI50 (HOP-92) was > 100 µM (inactive), the GI50 (HT-29) was > 100 µM (inactive) and the GI50 (IGROV-1) was > 100 µM (inactive). For the same compound, the GI50 (K562) was > 100 µM (inactive), the GI50 (M19-MEL) was > 100 µM (inactive) and the GI50 (OVCAR-4) was > 100 µM (inactive). For the same compound, the GI50 (SF-268) was > 100 µM (inactive), the GI50 (SF-539) was > 100 µM (inactive) and the GI50 (SK-MEL-28) was > 100 µM (inactive). The GI50 (SK-MEL-2) was > 100 µM (inactive), the GI50 (SN12C) was > 100 µM (inactive) and the GI50 (SW-620) was > 100 µM (inactive).
In the case of `O=C(O)CN(c1ccccc1)S(=O)(=O)c1ccc(NC(=O)c2ccccc2)cc1`, the GI50 (786-0) is reported as > 100 µM (inactive), the GI50 (COLO 205) is reported as > 100 µM (inactive) and the GI50 (DMS-273) is reported as > 100 µM (inactive). The GI50 (HOP-92) was > 100 µM (inactive), the GI50 (HT-29) was > 10 µM (inactive) and the GI50 (IGROV-1) was > 100 µM (inactive). The GI50 (K562) was > 100 µM (inactive), the GI50 (M19-MEL) was > 100 µM (inactive) and the GI50 (OVCAR-4) was > 100 µM (inactive). The GI50 (SF-268) was > 100 µM (inactive), the GI50 (SF-539) was > 100 µM (inactive) and the GI50 (SK-MEL-28) was > 100 µM (inactive). The GI50 (SK-MEL-2) was > 100 µM (inactive), the GI50 (SN12C) was > 100 µM (inactive) and the GI50 (SW-620) was > 100 µM (inactive).

From ChEMBL document CHEMBL1201862, “PubChem BioAssay data set” (2004)
